# Test results from US9867826B2, “Heterocycles as modulators of kinase activity” (Merck Patent GmbH, priority 2013, dated 2018).
# Tests used:
# [1] = molecular target: His-AKT (Full Length) (Homo sapiens (Human), UniProt P31749); assay: AKT enzyme assay; type: biochemical; details: 160 uM ATP
# Description: A TTP Mosquito liquid handling instrument was used to place 125 nl of the appropriate concentration of inhibitor in 100% DMSO (for a dose response curve calculation) into each well of a 384-well plate. To this reaction components were added to a final volume of 12.5 μl: • 0.1 ng/μl His-AKT (Full Length), (Invitrogen, Part # P2999, Lot #641228C). • 160 uM ATP (Fluka, 02055) • 1 mM DTT (Sigma, D0632) • 1 mM MgCl2 (Sigma, M1028) • 1 μM substrate peptide (sequence FITC-AHA-GRPRTSSFAEG-NH2), synthesized by Tufts Peptide Synthesis service. • 100 mM HEPES pH 7.5 (Calbiochem, 391338) • 0.015% Brij-35 (Sigma, B4184)
# The reaction was incubated for 90 min at 25 C., and then stopped by the addition of 70 μl of Stop buffer (100 mM HEPES pH 7.5, 0.015% Brij-35, 10 mM EDTA (Sigma, E7889)).
# The plate was read on a Caliper LC 3000 in an Off-Chip mobility shift assay format, using the following parameters for a 12-sipper chip: screening pressure −2.3 psi, upstream voltage −500, and downstream voltage −3000. These conditions caused unphosphorylated substrate and phosphorylated product peptide to resolve as separate peaks allowing direct measurement of percentage of conversion of substrate to product.
# The percent conversion was plotted against concentration of inhibitor to produce a sigmoidal dose response curve, from which an IC50 was calculated.
# [2] = molecular target: P70S6K (T412E mutant) (Homo sapiens (Human), UniProt P23443, T412E); assay: P70S6K enzyme assay; type: biochemical; details: 24 μM ATP
# Chain of P70S6K (T412E mutant) (P23443 whole entry T412E): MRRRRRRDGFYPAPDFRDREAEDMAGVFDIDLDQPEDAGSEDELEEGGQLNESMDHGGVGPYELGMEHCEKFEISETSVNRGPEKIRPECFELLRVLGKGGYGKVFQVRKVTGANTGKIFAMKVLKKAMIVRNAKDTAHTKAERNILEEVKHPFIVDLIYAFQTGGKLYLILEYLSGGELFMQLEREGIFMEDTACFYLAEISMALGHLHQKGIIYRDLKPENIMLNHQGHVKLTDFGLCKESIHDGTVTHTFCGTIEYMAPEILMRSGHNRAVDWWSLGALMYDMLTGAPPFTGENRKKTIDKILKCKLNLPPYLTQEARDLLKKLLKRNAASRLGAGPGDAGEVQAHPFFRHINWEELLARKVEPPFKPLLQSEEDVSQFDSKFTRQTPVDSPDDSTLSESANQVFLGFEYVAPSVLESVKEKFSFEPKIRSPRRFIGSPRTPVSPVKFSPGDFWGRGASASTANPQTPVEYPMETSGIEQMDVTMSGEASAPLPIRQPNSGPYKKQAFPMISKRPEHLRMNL
# Description: P70S6K inhibitor compounds were diluted and plated in 96 well plates. A reaction mixture including the following components was then added to the compound plate to initiate the enzyme reaction; P70S6K (3 nM, T412E mutant, Millipore) was mixed with 24 μM ATP in an assay buffer containing 100 mM Hepes (pH 7.5), 5 mM MgCl2, 1 mM DTT, 0.015% Brij and 1 μM of the substrate peptide FITC-AHA-AKRRRLSSLRA-OH (derived from the S6 ribosomal protein sequence, FITC=fluorescein isothiocyanate, AHA=6-aminohexanoic acid). The reaction was incubated for 90 min at 25° C., before the addition of 10 mM EDTA to stop the reaction. The proportion of substrate and product (phosphorylated) peptide was analysed on a Caliper Life Sciences Lab Chip 3000, using a pressure of −1.4 psi, and upstream and downstream voltages of −3000 and −700 respectively. Product peaks were resolved before substrate peaks on the resulting chromatograms.
# Chain of His-AKT (Full Length) (P31749 whole entry): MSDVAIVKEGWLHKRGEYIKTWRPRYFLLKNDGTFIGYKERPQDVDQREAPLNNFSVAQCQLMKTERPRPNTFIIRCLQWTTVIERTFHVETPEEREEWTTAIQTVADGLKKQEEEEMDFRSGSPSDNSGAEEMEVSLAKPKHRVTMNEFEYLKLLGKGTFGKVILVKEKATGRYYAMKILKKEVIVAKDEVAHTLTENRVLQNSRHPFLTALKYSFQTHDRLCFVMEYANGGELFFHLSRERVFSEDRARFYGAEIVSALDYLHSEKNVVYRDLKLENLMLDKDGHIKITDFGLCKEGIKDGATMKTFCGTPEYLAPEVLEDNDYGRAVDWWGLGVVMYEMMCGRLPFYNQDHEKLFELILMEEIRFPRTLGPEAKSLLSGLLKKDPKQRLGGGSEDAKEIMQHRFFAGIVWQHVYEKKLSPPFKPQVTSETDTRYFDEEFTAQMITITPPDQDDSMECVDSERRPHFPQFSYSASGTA
Compound,IC50 [1],IC50 [2]
"CNCCn1cc(-c2ccc(F)c(C)c2)nc1[C@@H]1CCN(c2ncnc(N)c2C(C)C)C[C@@H]1F (racemic) [Compound 38, 6-{cis-3-Fluoro-4-[4-(4-fluoro-3-methyl-phenyl)-1-(2-methylamino-ethyl)-1H-imidazol-2-yl]-piperidin-1-yl}-5-isopropyl-pyrimidin-4-ylamine]",1 to 10 nM,1 to 10 nM
"Cc1cc(-c2cn(CC3CNC3)c([C@@H]3CCN(c4ncnc(N)c4C(C)C)C[C@@H]3F)n2)ccc1F (racemic) [Compound 41, 6-{cis-4-[1-Azetidin-3-ylmethyl-4-(4-fluoro-3-methyl-phenyl)-1H-imidazol-2-yl]-3-fluoro-piperidin-1-yl}-5-isopropyl-pyrimidin-4-ylamine]",1 to 10 nM,1 to 10 nM
N#Cc1c[nH]c2ncnc(N3CC[C@@H](c4nc(-c5ccc(F)c(C(F)(F)F)c5)cn4CCN4CCC4)[C@@H](F)C3)c12 (racemic) [Compound 42],1 to 10 nM,1 to 10 nM
N#Cc1c[nH]c2ncnc(N3CC[C@@H](c4nc(-c5ccnc(C(F)(F)F)c5)cn4CCN4CCC4)[C@@H](F)C3)c12 (racemic) [Compound 43],1 to 10 nM,1 to 10 nM
"Cc1cc(-c2cn(CCN3CCC3)c([C@@H]3CCN(c4ncnc(N)c4C(N)=O)C[C@@H]3F)n2)ccc1F (relative stereo) [Compound 19, 4-Amino-6-{cis-4-[1-(2-azetidin-1-yl-ethyl)-4-(4-fluoro-3-methyl-phenyl)-1H-imidazol-2-yl]-3-fluoro-piperidin-1-yl}-pyrimidine-5-carboxylic acid amide]",1 to 10 nM,1 to 10 nM
"NC(=O)c1c(N)ncnc1N1CC[C@@H](c2nc(-c3ccc(F)c(C(F)(F)F)c3)cn2CCN2CCC2)[C@@H](F)C1 (single isomer, unassigned) [Compound 3]",1 to 10 nM,1 to 10 nM
"NC(=O)c1c(N)ncnc1N1CC[C@H](c2nc(-c3ccc(F)c(C(F)(F)F)c3)cn2CCN2CCC2)[C@H](F)C1 (single isomer, unassigned) [Compound 4]",> 10 nM,1 to 10 nM
"CN(C)CCn1cc(-c2ccc(F)c(C(F)(F)F)c2)nc1[C@H]1CCN(c2ncnc(N)c2C(N)=O)C[C@H]1F (single isomer, unassigned) [Compound 20]",1 to 10 nM,1 to 10 nM
"CN(C)CCn1cc(-c2ccc(F)c(C(F)(F)F)c2)nc1[C@@H]1CCN(c2ncnc(N)c2C(N)=O)C[C@@H]1F (single isomer, unassigned) [Compound 21]",> 10 nM,1 to 10 nM
"CCOc1c(N)ncnc1N1CC[C@@H](c2nc(-c3ccc(F)c(C(F)(F)F)c3)cn2CCN2CCC2)[C@@H](F)C1 (single isomer, unassigned) [Compound 22]",1 to 10 nM,1 to 10 nM
"CCOc1c(N)ncnc1N1CC[C@H](c2nc(-c3ccc(F)c(C(F)(F)F)c3)cn2CCN2CCC2)[C@H](F)C1 (single isomer, unassigned) [Compound 23]",1 to 10 nM,1 to 10 nM
"Cc1cc(-c2cn(CCN3CCC3)c([C@@H]3CCN(c4ncnc(N)c4C(N)=O)C[C@@H]3F)n2)ccc1F (single isomer, unassigned) [Compound 27]",1 to 10 nM,1 to 10 nM
"Cc1cc(-c2cn(CCN3CCC3)c([C@H]3CCN(c4ncnc(N)c4C(N)=O)C[C@H]3F)n2)ccc1F (single isomer, unassigned) [Compound 28]",> 10 nM,> 10 nM
"CN(C)CCn1cc(-c2ccc(F)c(C(F)(F)F)c2)nc1[C@@H]1CCN(c2ncnc(N)c2Cl)C[C@@H]1F (single isomer, unassigned) [Compound 29]",1 to 10 nM,1 to 10 nM
"CN(C)CCn1cc(-c2ccc(F)c(C(F)(F)F)c2)nc1[C@H]1CCN(c2ncnc(N)c2Cl)C[C@H]1F (single isomer, unassigned) [Compound 30]",> 10 nM,1 to 10 nM
"CC(C)c1c(N)ncnc1N1CC[C@H](c2nc(-c3ccc(F)c(C(F)(F)F)c3)cn2CCN(C)C)[C@H](F)C1 (single isomer, unassigned) [Compound 31]",> 10 nM,1 to 10 nM
"CC(C)c1c(N)ncnc1N1CC[C@@H](c2nc(-c3ccc(F)c(C(F)(F)F)c3)cn2CCN(C)C)[C@@H](F)C1 (single isomer, unassigned) [Compound 32]",1 to 10 nM,1 to 10 nM
"N#Cc1c(N)ncnc1N1CC[C@@H](c2nc(-c3ccc(F)c(C(F)(F)F)c3)cn2CCN2CCC2)[C@@H](F)C1 (single isomer, unassigned) [Compound 40]",1 to 10 nM,1 to 10 nM
"Cc1cc(-c2cn(CCN3CCC3)c(C3CCN(c4ncnc(N)c4C#N)CC3(F)F)n2)ccc1F (centres unmarked) [Compound 48, 4-Amino-6-{4-{1-(2-azetidin-1-yl-ethyl)-4-(4-fluoro-3-methyl-phenyl)-1H-imidazol-2-yl}-3,3-difluoro-piperidin-1-yl}-pyrimidine-5-carbonitrile]",1 to 10 nM,1 to 10 nM

# Next, values leading:
IC50 [1],IC50 [2],Compound
1 to 10 nM,1 to 10 nM,"Cc1cc(-c2cn(CCN3CCC3)c([C@@H]3CCN(c4ncnc(N)c4OC(C)C)C[C@@H]3F)n2)ccc1F (racemic) [Compound 39, 6-{cis-4-[1-(2-Azetidin-1-yl-ethyl)-4-(4-fluoro-3-methyl-phenyl)-1H-imidazol-2-yl]-3-fluoro-piperidin-1-yl}-5-isopropoxy-pyrimidin-4-ylamine]"
> 10 nM,1 to 10 nM,"Cc1cc(-c2cn(CCN3CCC3)c([C@H]3CCN(c4ncnc(N)c4C(C)C)C[C@H]3F)n2)ccc1F (single isomer, unassigned) [Compound 34]"
1 to 10 nM,1 to 10 nM,"Cc1cc(-c2cn(CCN3CCC3)c([C@@H]3CCN(c4ncnc(N)c4C(C)C)C[C@@H]3F)n2)ccc1F (single isomer, unassigned) [Compound 35]"
1 to 10 nM,1 to 10 nM,"Cc1cc(-c2cn(CCN3CCC3)c(C3(O)CCN(c4ncnc(N)c4C#N)CC3)n2)ccc1F [Compound 44, 4-Amino-6-{4-[1-(2-azetidin-1-yl-ethyl)-4-(4-fluoro-3-methyl-phenyl)-1H-imidazol-2-yl]-4-hydroxy-piperidin-1-yl}-pyrimidine-5-carbonitrile]"
1 to 10 nM,1 to 10 nM,"Cc1cc(-c2cn(CCN3CCC3)c(C3(O)CCN(c4ncnc(N)c4C(C)C)CC3)n2)ccc1F [Compound 45, 1-(6-Amino-5-isopropyl-pyrimidin-4-yl)-4-[1-(2-azetidin-1-yl-ethyl)-4-(4-fluoro-3-methyl-phenyl)-1H-imidazol-2-yl]-piperidin-4-ol]"
1 to 10 nM,1 to 10 nM,"CCc1c(N)ncnc1N1CCC(O)(c2nc(-c3ccc(F)c(C)c3)cn2CCN2CCC2)CC1 [Compound 46, 1-(6-Amino-5-ethyl-pyrimidin-4-yl)-4-[1-(2-azetidin-1-yl-ethyl)-4-(4-fluoro-3-methyl-phenyl)-1H-imidazol-2-yl]-piperidin-4-ol]"
1 to 10 nM,1 to 10 nM,"Cc1cc(-c2cn(CCN3CCC3)c(C3(O)CCN(c4ncnc(N)c4Cl)CC3)n2)ccc1F [Compound 47, 1-(6-Amino-5-chloro-pyrimidin-4-yl)-4-[1-(2-azetidin-1-yl-ethyl)-4-(4-fluoro-3-methyl-phenyl)-1H-imidazol-2-yl]-piperidin-4-ol]"
> 10 nM,> 10 nM,"Cc1cc(-c2cn(CCN3CCC3)c(C3CCN(c4ncnc(N)c4C(N)=O)CC3(F)F)n2)ccc1F (centres unmarked) [Compound 49, 4-Amino-6-{4-[1-(2-azetidin-1-yl-ethyl)-4-(4-fluoro-3-methyl-phenyl)-1H-imidazol-2-yl]-3,3-difluoro-piperidin-1-yl}-pyrimidine-5-carboxylic acid amide]"
1 to 10 nM,1 to 10 nM,"Cc1cc(-c2cn(CCN3CCC3)c(C3CCN(c4ncnc(N)c4C(C)C)CC3(F)F)n2)ccc1F (centres unmarked) [Compound 50, 6-{4-[1-(2-Azetidin-1-yl-ethyl)-4-(4-fluoro-3-methyl-phenyl)-1H-imidazol-2-yl]-3,3-difluoro-piperidin-1-yl}-5-isopropyl-pyrimidin-4-ylamine]"
